The results in this text go back to patent publication US20240065302A1, “SWEETENER COMPOSITIONS COMPRISING MOGROSIDES AND USES THEREOF” (Firmenich Incorporated, priority 2021, published 2024).

What all share (type): in vivo, human
The nature of assay [1]: Expert panelists' comparison of mogrosides with stevia. Conditions: with respect to Examples 4 and 5 (so in the source). Here is the method: (§1) A panel of flavorists at three locations evaluated lemon-lime beverage various mogrosides at a concentration of 600 ppm mogrosides for in-mouth attributes (peak sweetness, upfront sweetness, bitterness, and mouthfeel/thickness) and aftertaste attributes (sweet tastle linger), on a 0 to 10 scale. The in-mouth attributes were evaluated while holding the sample in the mouth, while the aftertaste attributes were evaluated after expectoration.
(§2) A panel of flavorists at three locations evaluated vanilla milk containing various mogrosides at a concentration of 400 ppm mogrosides for in-mouth attributes (peak sweetness, upfront sweetness, bitterness, and mouthfeel/thickness) and aftertaste attributes (sweet tastle linger), on a 0 to 10 scale. The in-mouth attributes were evaluated while holding the sample in the mouth, while the aftertaste attributes were evaluated after expectoration. The data was analyzed using Duncan's new multiple range test and the scores are provided in the data below in parentheses.

Assay [2] can be described thus: Additional sensory testing for vanilla milk (panel of flavorists). Conditions: 400 ppm mogrosides, in-mouth, 0 to 10 scale. As for the experimental part:
as §2

The nature of assay [3]: Additional sensory testing for lemon-flavored (lemon-lime) beverage (panel of flavorists). Particulars: 600 ppm mogrosides, in-mouth, 0 to 10 scale. As for the experimental part: as §1
Assay [4] can be described thus: Sensory testing for apple drink (panel of volunteers). Conditions: for Bitterness / Delayed Sweetness / Global Flavor Intensity / Sweetness / Thickness/Body: in-mouth, normalized to Reb M. As for the experimental part:
(§3) A panel of volunteers evaluated siratose for in-mouth attributes (sweetness, delayed sweetness, sourness, bitterness, global flavor intensity, thickness/body, and astringence) and aftertaste (AT) attributes (lingering sweetness, overall off-taste intensity, licorice off-tast, bitterness off-taste, and mouth coating) on a 10-point scale. Two replicate session were conducted, with a 20 minute break between sessions. There was a 90 second delay between samples within a session. Panelists evaluated all samples in a first session and evaluated the samples again a second time in a second session. Control samples of Rebaudioside M (Reb M) were evaluated during all sessions as a control. Mogroside V was also evaluated and sensory data for mogroside V is provided.
(§4) Data analysis was performed using 2-way analysis of variance (ANOVA) with interaction using Tukey's HSD test. The data was normalized for each attribute according to average scores for Reb M.

The nature of assay [5]: Sensory testing for lemon-lime carbonated soft drink (panel of volunteers). As for the experimental part:
as §3, §4
A panel of volunteers evaluated the siratose-containing lemon-lime carbonated soft drink for in-mouth attributes and aftertaste attributes according to the methods described in Example 1 above.

Assay [6] can be described thus: Sensory testing for sparkling orange beverage (panel of volunteers). As for the experimental part: as §3, §4
A panel of volunteers evaluated a sparkling orange beverage containing siratose for in-mouth attributes and aftertaste attibutes according to the methods described in Example 1 above.

Assay [7] can be described thus: Sensory testing for vanilla milk (panel of volunteers). Conditions: for Licorice Aftertaste / Lingering Sweetness / Mouth Coating / Overall Off-Taste: aftertaste. As for the experimental part:
as §3, §4
A panel of volunteers evaluated vanilla milk containing siratose for in-mouth attributes and aftertaste attributes according to the methods described in Example 1 above.

Setting [8] is: 250 ppm, aftertaste, 10-point scale.
Where [9] appears, read: 500 ppm, aftertaste, 10-point scale.
Where [10] appears, read: 600 ppm, aftertaste, 10-point scale, normalized.
The mark [11] stands for this setting: 600 ppm, in-mouth, 10-point scale, normalized.
Setting [12] is: 250 ppm, aftertaste, 10-point scale, normalized.
Setting [13] is: 250 ppm, in-mouth, 10-point scale, normalized.
The mark [14] stands for this setting: 200 ppm, 10-point scale, normalized.
The mark [15] stands for this setting: 200 ppm, in-mouth, 10-point scale, normalized.
The mark [16] stands for this setting: 400 ppm, 10-point scale, normalized.
Setting [17] is: 400 ppm, in-mouth, 10-point scale, normalized.

As to `C[C@H](CC[C@@H](O[C@@H]1O[C@H](CO[C@@H]2O[C@H](CO)[C@@H](O)[C@H](O)[C@H]2O)[C@@H](O)[C@H](O)[C@H]1O[C@@H]1O[C@H](CO)[C@@H](O)[C@H](O)[C@H]1O)C(C)(C)O)[C@H]1CC[C@@]2(C)[C@@H]3CC=C4[C@@H](CC[C@H](O[C@@H]5O[C@H](CO)[C@@H](O[C@@H]6O[C@H](CO)[C@@H](O)[C@H](O)[C@H]6O)[C@H](O)[C@H]5O)C4(C)C)[C@]3(C)[C@H](O)C[C@]12C` [Isomogroside V], in assay [1], the “Aftertaste and mouthfeel compared with stevia (in words)” value was “lower licorice aftertaste and lower bitter aftertaste as compared with stevia while having a better mouthfeel”.

As to `C[C@H](CC[C@@H](O[C@@H]1O[C@H](CO[C@@H]2O[C@H](CO)[C@@H](O)[C@H](O)[C@H]2O)[C@@H](O)[C@H](O)[C@H]1O[C@@H]1O[C@H](CO)[C@@H](O)[C@H](O)[C@H]1O)C(C)(C)O)[C@H]1CC[C@@]2(C)[C@@H]3CC=C4[C@@H](CC[C@H](O[C@@H]5O[C@H](CO)[C@@H](O)[C@H](O)[C@H]5O)C4(C)C)[C@]3(C)[C@H](O)C[C@]12C` [Siamenoside I], the “Peak Sweetness” value in assay [2] is 7.375 (a)_; in assay [3], 6.571 (b)_. The “Aftertaste and mouthfeel compared with stevia (in words)” value in assay [1] was “lower licorice aftertaste and lower bitter aftertaste as compared with stevia while having a better mouthfeel”.

Consider `C[C@H](CC[C@@H](O[C@@H]1O[C@H](CO[C@H]2O[C@H](CO)[C@@H](O)[C@H](O)[C@H]2O)[C@@H](O)[C@H](O)[C@H]1O[C@@H]1O[C@H](CO)[C@@H](O)[C@H](O)[C@H]1O)C(C)(C)O)[C@H]1CC[C@@]2(C)[C@]3(C)CC=C4[C@@H](CC[C@H](O[C@@H]5O[C@H](CO)[C@@H](O)[C@H](O)[C@H]5O)C4(C)C)[C@]3(C)[C@H](O)C[C@]12C` [siratose], for which the “Sensory profile compared with mogroside V (in words)” value in assay [4] is “sweeter, less bitter, and have a higher global flavor intensity than mogroside V, while having a lower overall off taste, licorice aftertaste, and bitterness aftertaste”. Also, in assay [4] (setting [8]), the “Bitterness Aftertaste” value came out at 1.1, the “Licorice Aftertaste” value stood at 1.8, the “Lingering Sweetness” value worked out at 3.4 and the “Overall Off-Taste” value is on record as 2.8. In assay [4] (250 ppm, 10-point scale), the Bitterness is listed as 1.5, the “Delayed Sweetness” value stood at 2.2, the “Global Flavor Intensity” value came to 3.7 and the Sweetness is listed as 4.2. In addition, in assay [4] (250 ppm, 10-point scale), the Thickness/Body was 1.5. Besides, in assay [4] (setting [9]), the “Licorice Aftertaste” value is recorded as 2.8, the “Lingering Sweetness” value is recorded as 5.2, the “Mouth Coating” value stood at 2.6 and the “Overall Off-Taste” value is reported as 4.0. Moreover, in assay [4] (500 ppm, 10-point scale), the Bitterness was 1.7, the “Delayed Sweetness” value was determined as 3.4, the “Global Flavor Intensity” value is listed as 4.6 and the Sweetness worked out at 5.9. The compound also came in with a Thickness/Body in assay [4] (500 ppm, 10-point scale) of 1.8. Besides, the “Sensory profile compared with control Reb M (in words)” value in assay [4] (same concentration) was “high sweetness score and similar in-mouth and aftertaste attributes as the control Reb M samples”. For the same compound, in assay [1], the “Aftertaste and mouthfeel compared with stevia (in words)” value is “lower licorice aftertaste and lower bitter aftertaste as compared with stevia while having a better mouthfeel”. Also, the “Sensory profile compared with mogroside V (in words)” value in assay [5] was “higher sweetness and global flavor intensity as compared to mogroside V while having a similar aftertaste profile”. In addition, in assay [5] (setting [10]), the “Bitterness Aftertaste” value came to 1.3, the “Licorice Aftertaste” value is recorded as 2.3, the “Lingering Sweetness” value was determined as 4.3 and the “Overall Off-Taste” value came to 3.9. In assay [5] (setting [11]), the Bitterness turned out to be 2.1, the “Delayed Sweetness” value is 3.9, the “Global Flavor Intensity” value worked out at 4.5 and the Sweetness was 6.0. Further, the “Sensory profile compared with control Reb M (in words)” value in assay [5] (same concentration) was “high sweetness score and similar in-mouth and aftertaste attributes as the control Reb M samples”. Further, in assay [6], the “Off-taste and mouth coating compared with Reb M (in words)” value is “slightly lower off-taste and higher mouth coating than Reb M”; the “Sweetness compared with mogroside V (in words)” value is “greater sweetness than mogroside V”. In assay [6] (setting [12]), the “Licorice Aftertaste” value was found to be 2.9, the “Lingering Sweetness” value is 4.4, the “Mouth Coating” value is 3.0 and the “Overall Off-Taste” value is 3.1. In assay [6] (setting [13]), the “Delayed Sweetness” value came to 4.1 and the Sweetness came to 5.8. Besides, the “Sweetness and delayed sweetness compared with control Reb M (in words)” value in assay [6] (same concentration) is “high sweetness score and an increased delayed sweetness compared to the control Reb M samples”. For the same compound, in assay [7] (200 ppm and 400 ppm), the “Sensory profile compared with Reb M (in words)” value is recorded as “improved sweetness as comparted to Reb M”; the “Sensory profile compared with mogroside V (in words)” value is “sweeter than mogroside V at both 200 ppm and 400 ppm, while having a similar aftertaste profile”. Moreover, in assay [7] (setting [14]), the “Licorice Aftertaste” value is 1.0, the “Lingering Sweetness” value is on record as 3.1, the “Mouth Coating” value turned out to be 3.2 and the “Overall Off-Taste” value came to 1.9. Also, in assay [7] (setting [15]), the Astringence is 0.5, the “Delayed Sweetness” value was determined as 1.7, the Fattiness was found to be 3.1 and the Sourness is 0.5. In assay [7] (setting [15]), this compound registered a Sweetness of 5.6. In addition, in assay [7] (setting [16]), the “Licorice Aftertaste” value amounted to 1.1, the “Lingering Sweetness” value is 4.0, the “Mouth Coating” value worked out at 0.8 and the “Overall Off-Taste” value was found to be 2.4. Also, in assay [7] (setting [17]), the Astringence worked out at 0.5, the Bitterness was found to be 0.6, the “Delayed Sweetness” value is given as 2.3 and the Fattiness worked out at 3.6. Also, in assay [7] (setting [17]), the “Global Flavor Intensity” value was found to be 5.1, the Sourness was determined as 0.5 and the Sweetness came to 7.1.

On to Isomogroside IVE, for which the Bitterness in assay [2] was 1.313. The “Aftertaste and mouthfeel compared with stevia (in words)” value in assay [1] was “lower licorice aftertaste and lower bitter aftertaste as compared with stevia while having a better mouthfeel”.
